In one data set the test system is human red blood cells. Nature of the data set: Red blood cell (RBC) lysis. As to conditions: concentrations up to 100 μM. As for the experimental part:
Following ficoll-paque separation, RBCs were collected and washed with 1×PBS and pelleted at 1000×g for 10 min. RBCs were diluted 1 in 10 for treatment with increasing concentrations (0-100 μM) of defensins and incubated over-night under a humidified atmosphere of 5% CO2/95% air. […] The degree of red blood cell lysis was measured as absorbance at 412 nm.

Data set [1] concerns Fusarium oxysporum f. sp. vasinfectum. The conditions noted are these: read-out: IC50, growth of Fusarium oxysporum f. sp. vasinfectum. How it is done: Permeabilization of fungal membranes has also been reported for some plant defensins (Lay and Anderson, 2005). […] These five fungal species are all members of the ascomycete phylum and are distributed among three classes in the subphylum pezizomycotiria. These fungi are agronomically important fungal pathogens.
SP Sepharose elution fractions containing rNaD1 were loaded onto an analytical C8 RP-HPLC column and eluted using a 40 min linear gradient (0-100% buffer B). Proteins were detected by absorbance at 215 nm. […] Graph represents data from three separate experiments performed in quadruplicate. Error bars represent standard error of the mean.

Data set [2] deals with human coronary artery smooth muscle cells (CASMC) and umbilical vein endothelial cells (HUVEC). The conditions noted are these: read-out: IC50, viability of normal primary cells (MTT), 48 h.
Procedure: Tumour cells were seeded in a 96-well microtitre plate (50 μL/well) at an optimum density determined in the cell optimisation assay as above. Background control wells (n=8) containing the same volume of complete culture medium were included in the assay. The microtitre plate was incubated overnight at 37° C., prior to the addition of proteins at various concentrations and the plate was incubated for a further 48 h. The cell viability 3-(4,5-dimethyl-2-thiazolyl)-2,5-diphenyl-2H-tetrazolium bromide (MTT, Sigma-Aldrich) assay was carried out as follows: the MTT solution (1 mg/mL) was added to each well (100 μL) and the plate incubated for 2-3 h at 37° C. under a humidified atmosphere containing 5% CO2/95% air. Subsequently, for adherent cell lines, the media was removed and replaced with dimethyl sulfoxide (100 μL, DMSO, Sigma-Aldrich), and placed on a shaker for 5 min to dissolve the tetrazolium salts. In the case of suspension cells, prior to the addition of DMSO the cells are spun at 1500 rpm for 5 min. Absorbance of each well was measured at 570 nm and the IC50 values (the protein concentration to inhibit 50% of cell growth) were determined using the Origin Software Program. […]
Data set [3] concerns human U937 myelomonocytic cells. The experiment in a line: PI uptake flow cytometry cell permeabilisation assay, U937. It is filed as cell-based. The conditions noted are these: for PI+ U937 cells (mean ± SEM): 10 μM, absence of serum, Example 9, cell only control 27.03±0.52. As for the experimental part:
(§1) Unless otherwise stated, cells were re-suspended at a cell concentration of 4×10^5 cells/mL in complete culture RPMI-1640 medium supplemented with 10% FBS, 100 U/mL penicillin and 100 μg/mL streptomycin, and added to either a V-bottom 96-well plate or microfuge tubes. Cells were kept at 37° C., unless otherwise stated, during protein addition (5 μL) at various concentrations or the set concentration of 10 μM. Typically, cells were mixed with the protein of interest and incubated at 37° C. for 30 min. In certain experiments, cells were also incubated at either 4° C. or 37° C. for 2-60 min prior to flow cytometry analysis. Cells were added to an equal volume of complete culture medium containing 2 μg/mL propidium iodide (PI, Annexin V-FITC Apoptosis Detection Kit, Invitrogen) and analysed immediately by flow cytometry using a FACSCanto cell sorter (Becton Dickson, Fanklin Lakes, N.J.) and Cell Quest Pro Software (Becton Dickson). Typically, 5000-10000 events per sample were collected and the resultant data were analysed using FlowJo software (Tree Star, Ashland, Oreg.). Cells were gated appropriately based on forward scatter (FSC) and side scatter (SSC), with the viable cells determined by their ability to exclude PI. For analysis purposes, all data was standardised relative to control (normal cell % ranged from approx. 0-7%).
(§2) To determine whether NaD1 kills tumour cells in a similar manner to fungus, the ability of NaD1 to permeabilise tumour cells was assessed using two different approaches. The first used a bioluminescence assay to measure the release of intracellular ATP.
(§3) The first used a bioluminescence assay to measure the release of intracellular ATP. 4×10^4 U937 (human myelomonocytic tumour cell line) were treated with increasing concentrations of PhD1A or rTPP3 (0-20-μM) and ATP release measured at intervals of 30 seconds for a total of 30 min by determining absorbance at 562 nm. The second approach used flow cytometry to determine the uptake of the fluorescent dye propidium iodide (PI) (2 μg/mL) by U937 (4×10^5/mL) following the treatment of cells with increasing concentrations of PhD1A (0 to 50 μM) or rTPP3 (0 to 40 μM) for 30 min.
(§4) The percentage of PI^+ cells was then determined by flow cytometry.
(§5) The first used a bioluminescence assay to measure the release of intracellular ATP. 4×10^4U937 were treated with 10 μM of each defensin and ATP release measured at intervals of 30 seconds for a total of 30 min by determining absorbance at 562 nm. The second approach used flow cytometry to determine the uptake of the fluorescent dye propidium iodide (PI) (2 μg/mL) by U937 (4×10^5/mL) following the treatment of cells with […] of each defensin for 30 min.

For data set [4], the system named is U937 human myelomonocytic cells. Nature of the data set: ATP bioluminescence (ATP release) assay, U937. It is filed as cell-based. As to conditions: read over 30 min. As for the experimental part:
ATP bioluminescence assay (Roche Diagnostics, NSW Australia) was used to quantitate the release of ATP by permeabilised tumour cells. The Luciferase reagent was dissolved as per manufacturer's instructions and incubated for 5 min at 4° C. Briefly, cells were re-suspended at a concentration of 1×10^6 cells/mL in 1×PBS/0.1% BSA and added (40 μL/well) to the Luciferase reagent (50 μL/well) to a blank microtitre plate (Nunc™) containing 10 μL of protein samples. Simultaneously, using a multichannel pipette, the mixture was added (90 μL/well) and samples were immediately read on a microtitre plate reader at 562 nm for 30 min with readings taken at 30 s intervals. The data were analysed by SoftMaxPro 4.0 software (Molecular Devices Company).
as §2, §3, §5

Data set [5] can be described thus: Lipid-coated membrane strip binding assay (Echelon lipid strips). The conditions noted are these: 0.12 μM, overnight, 4° C. As for the experimental part:
Membrane Lipid Strips™, PIP Strips™ and Sphingo Strips™ (Echelon Biosciences, Salt Lake City, Utah) were incubated with PBS/3% BSA for 1-2 h at RT to block non-specific binding. The membrane strips were then incubated with defensins (0.12 μM) diluted in PBS/1% BSA overnight at 4° C., prior to thorough washing for 60 min at RT with PBS/0.1% Tween-20. […] After each antibody incubation, the membrane strips were washed extensively for 60 min at RT with PBS/0.1% Tween-20. Chemiluminescence was detected using the enhanced chemiluminescence (ECL) western blotting reagent (GE Healthcare BioSciences, NSW Australia) and exposed to Hyperfilm (GE Healthcare BioSciences, NSW, Australia) and developed using an Xomat (All-Pro-Imaging).
Densitometry analysis was performed on images obtained from lipid strips using ImageJ (National Institute of Health, Bethesda, Md.). Briefly, circles of equivalent size were traced around areas of interest. A background circle of equal size was also placed in the area on the membrane where there is no lipid and set as the background. The areas of interest were quantified as the average pixel intensity subtracted from the background.
These strips are spotted with 100 pmole of each lipid in a biologically active form.
Further investigation of the interaction of Solanaceae class I and class II defensins with cellular lipids was carried out by solid-state lipid binding assays using Echelon™ PIP Strips. […] Defensin binding was quantitated by densitometry on the developed lipid strips.

A further data set deals with U937 cells. The experiment in a line: PI uptake permeabilisation assay in the presence of serum. It is filed as cell-based, human. As to conditions: for PI+ U937 cells: 10 μM defensin; for activity on tumour cells in the presence of serum: up to 40% serum. How it is done: as §1, §4
To assess the ability of PhD1A or rTPP3 to permeabilise tumour cells in the presence of serum, the PI-uptake flow cytometry assay was utilised as described in Example 2 with the following modifications: 4×10^5/mL U937 cells were incubated with […] PhD1A or rTPP3 in the presence of increasing concentrations of foetal calf serum (FCS) (0 to 40%) for 60 min followed by addition of 2 μg/mL PI. The percentage of PI^+ cells was then determined by flow cytometry.

[6] abbreviates: Example 11, 30 min at 37° C., concentration printed 'at 100' (10 μM in the same block).

Bridges are numbered along the chain shown (N, C = ends). Where no end group is shown, it is not given here.

Consider “ARECKTESNTFPGICITKPPCRKACISEKFTDGHCSKILRRCLCTKPC (disulfide 4-48, 15-35, 21-42, 25-44) [rNaD1]”, for which the values for the haemolytic activity result in the data set on human red blood cells and in the data set with human red blood cells (listed as recombinant NaD1) were “no ability to lyse RBCs” and “no haemolytic activity”, respectively. For the same substance, the figures for the IC50 in data set [1] and in data set [2] were around 1.6 µM and 7.5 to 12 µM, respectively.

Regarding “NsD1: Nicotiana suaveolens class II defensin; mature domain SEQ ID NO: 22 (KDCKRESNTFPGICITKPPCRKACIREKFTDGHCSKILRRCLCTKPC; listed as Nicotiana suaveolens)”, the “PI+ U937 cells” value in data set [3] (setting [6]) is around 60%. Also, in data set [4], the “release of ATP from U937 cells” value was “release of ATP in a time-dependent and concentration-dependent manner”. The “phospholipid binding preference (PIP strips)” value in data set [5] is given as “general preference of binding to phosphoinositides”.

“NsD2: Nicotiana suaveolens class II defensin; mature domain SEQ ID NO: 26 (KDCKRESNTFPGICITKLPCRRACISEKFADGHCSKILRRCLCTKPC; listed as Nicotiana suaveolens)”: the “PI+ U937 cells” value in data set [3] (setting [6]) is recorded as around 60%. Also, the “release of ATP from U937 cells” value in data set [4] was “release of ATP in a time-dependent and concentration-dependent manner”. Also, in data set [5], the “phospholipid binding preference (PIP strips)” value was “general preference of binding to phosphoinositides”.

With “PhD1A: Petunia hybrida Class II defensin; mature domain SEQ ID NO: 18 (ATCKAECPTWDGICINKGPCVKCCKAQPEKFTDGHCSKVLRRCLCTKPC; listed as Petunia hybrida)”, the “PI+ U937 cells” value in data set [3] (6.25 μM, 30 min, 37° C.) is on record as around 35%; in data set [3] (50 μM, 30 min, 37° C.), around 90%; in the data set on U937 cells (0% FCS), 90%; in the data set with U937 cells (40% FCS), 40%. Further, the “PI+ U937 cells (mean ± SEM)” value in data set [3] amounted to 57.07±2.76%. Further, the “release of ATP from U937 cells” value in data set [4] was “release of ATP in a time-dependent and concentration-dependent manner”. Besides, the “activity on tumour cells in the presence of serum” value in the data set with U937 cells is “retained the ability to permeabilise U937 cells”. Also, in data set [5], the “binding to phosphatidic acid (PA)” value is recorded as “bound strongly”. The “phospholipid binding preference (PIP strips)” value in data set [5] is listed as “general preference of binding to phosphoinositides”.

With “rTPP3: Solanum lycopersicum (tomato) Class II defensin TPP3, recombinant (SEQ ID NO: 12) (AQQICKAPSQTFPGLCFMDSSCRKYCIKEKFTGGHCSKLQRKCLCTKPC; listed as Solanum lycopersicum)”, the “PI+ U937 cells” value is recorded as around 35% in data set [3] (5 μM, 30 min, 37° C.) and around 90% in data set [3] (40 μM, 30 min, 37° C.). Also, in data set [3], the “PI+ U937 cells (mean ± SEM)” value was found to be 49.97±2.93%. The “release of ATP from U937 cells” value in data set [4] was “release of ATP in a time-dependent and concentration-dependent manner”. For the same substance, the “retention of permeabilisation activity” value in the data set on U937 cells (5-40% FCS) is given as “up to 70%”. Moreover, in the data set with U937 cells, the “activity on tumour cells in the presence of serum” value is “retained the ability to permeabilise U937 cells”. The “phospholipid binding preference (PIP strips)” value in data set [5] is “general preference of binding to phosphoinositides”.
